These results are taken from patent publication US3970703A, “Phenylacetic acid derivatives” (Sumitomo Chemical Company, Limited, priority 1970, dated 1976).

For one experiment, the system named is housefly adults. The class given is in vivo.
The conditions of experiment [1]: in words, background; cited from earlier work.
The subject of the next experiment is house fly adults. Description: Oil spray test, Campbell's turn table method (Test Examples 1 and 2). The following applies: Musca domestica, topical, 24 h, read-out: killing ratio.
Where [2] appears, read: tetramethrin + 5 times weight of synergist, relative to tetramethrin alone of same batch.
The mark [3] stands for this setting: tetramethrin + 5 times weight of synergist, three batches (tetramethrin alone 0.530, 0.520, 0.570).
[4] abbreviates: 3,4-dimethylphenyl-N-methylcarbamate + synergist, relative to insecticide alone.
The mark [5] stands for this setting: 3,4-dimethylphenyl-N-methylcarbamate + synergist, three batches.
Where [6] appears, read: allethrin + 5 times weight of synergist, relative to allethrin alone.
[7] abbreviates: allethrin + 5 times weight of synergist, three batches.
The mark [8] stands for this setting: natural pyrethrin + 5 times weight of synergist, relative to natural pyrethrin alone.
The mark [9] stands for this setting: natural pyrethrin + 5 times weight of synergist, three batches.
Where [10] appears, read: present compound alone, no insecticide.
Where [11] appears, read: insecticide alone, no synergist.
[12] abbreviates: insecticide alone, no synergist (reference 1.0).

Several values for one entry are separate records, joined by “and”; a condition that tells them apart may be missing. Identical values can stand only once. Like-named read-outs stand apart in the source and are kept apart here.

For the molecule `C#CCCCCOC(=O)C(CCC)(OCC)c1ccccc1` (stereo not shown) [Present compound (17)], the “Ratio of enhancing the killing effect” value in the experiment on housefly adults (setting [2]) turned out to be 8.3. Also, the LD50 with housefly adults (setting [3]) was 0.063 γ/Fly.
On the same counts, the results for `C#CCOC(=O)C(OC)(c1ccccc1)C1CCCCC1` (stereo not drawn) [Present compound (9), Propargyl α-cyclohexyl-α-methoxyphenylacetate] are 4.8 and 0.111 γ/Fly.
Consider `C#CCOC(=O)C(CCC)(OC)c1ccccc1` (stereo not drawn) [Present compound (1), Propargyl α-(n-propyl)-α-methoxyphenylacetate], for which the “Ratio of enhancing the killing effect” value in the experiment on housefly adults (setting [4]) is on record as no less than 18; with housefly adults (setting [6]), 6.6; with housefly adults (setting [8]), 4.9; in the experiment with housefly adults (setting [2]), 7.8. The LD50 is 0.278 γ/Fly with housefly adults (setting [5]); 0.085 γ/Fly in the experiment on housefly adults (setting [7]); 0.082 γ/Fly in the experiment with housefly adults (setting [9]); ≥ 2 γ/Fly with housefly adults (setting [10]); 0.068 γ/Fly in the experiment on housefly adults (setting [3]).
For `C#CCCOCC(CCC)(OC)c1ccccc1` (stereo not shown) [Present compound (26)], the “Ratio of enhancing the killing effect” value in the experiment with housefly adults (setting [2]) worked out at 7.0. Also, in the experiment with housefly adults (setting [3]), the LD50 is recorded as 0.081 γ/Fly.
For `C#CCOC(=O)C(CC=C)(OCCC)c1ccccc1` (stereo not drawn) [Present compound (7), Propargyl α-allyl-α-(n-propyloxy)-phenylacetate], the “Ratio of enhancing the killing effect” value in the experiment with housefly adults (setting [2]) came to 7.9. In addition, in the experiment on housefly adults (setting [3]), the LD50 is 0.067 γ/Fly.
On the same counts, the results for `C#CCOCC(CC=C)(OCC)c1ccccc1` (stereo not drawn) [Present compound (21), Propargyl α-allyl-α-ethoxyphenethyl ether] are 9.5 and 0.060 γ/Fly.
For `C#CCOC(=O)C(Cc1ccccc1)(OCC)c1ccccc1` (stereo not drawn) [Present compound (12), Propargyl α-benzyl-α-ethoxyphenylacetate] the same measures were 10.0 and 0.052 γ/Fly.
For the molecule `CCCCOCCOCCOCc1cc2c(cc1CCC)OCO2` [Piperonyl butoxide, α-[2-(butoxyethoxy)-ethoxy]-4,5-methylene-dioxy-2-propyltoluene], in experiment [1], the “synergistic effect on allethrin and other synthetic pyrethroids” value is listed as “somewhat inferior”; the “synergistic effect on natural pyrethrin” value is given as “prominent synergistic effect”.
Consider `C=CCC1=C(C)C(OC(=O)C2C(C=C(C)C)C2(C)C)CC1=O` (stereo not shown) [Allethrin, reference compound], for which, in the experiment with housefly adults (setting [11]), the LD50 was 0.560 γ/Fly and 0.60 γ/Fly and 0.610 γ/Fly. Also, the “Ratio of enhancing the killing effect” value with housefly adults (setting [12]) stood at 1.0.
With `C#CCOC(=O)C(CCC=C)(OC)c1ccccc1` (stereo not drawn) [Present compound (4), Propargyl α-butenyl-α-methoxyphenylacetate], in the experiment with housefly adults (setting [2]), the “Ratio of enhancing the killing effect” value came to 7.5. Moreover, the LD50 in the experiment on housefly adults (setting [3]) was 0.071 γ/Fly.
On the same counts, the results for `C#CCOC(=O)C(OC)(c1ccccc1)c1cccs1` (stereo not drawn) [Present compound (14), Propargyl α-(2-thienyl)-α-methoxyphenylacetate] are 8.1 and 0.064 γ/Fly.
Consider `C#CCCOC(=O)C(CC=C)(OC)c1ccccc1` (stereo not shown) [Present compound (10)], for which the LD50 in the experiment with housefly adults (setting [10]) is ≥ 2 γ/Fly; in the experiment on housefly adults (setting [3]), 0.077 γ/Fly. The “Ratio of enhancing the killing effect” value in the experiment with housefly adults (setting [2]) is 6.9.
`CNC(=O)Oc1cccc2ccccc12` [Carbaryl, reference compound]: in the experiment with housefly adults (setting [12]), the “Ratio of enhancing the killing effect” value came out at 1.0.
In the case of `C#CCOC(=O)C(CC(C)C)(OC)c1ccccc1` (stereo not drawn) [Present compound (6), Propargyl α-(iso-butyl)-α-methoxyphenylacetate], in the experiment with housefly adults (setting [2]), the “Ratio of enhancing the killing effect” value is given as 8.0. Besides, the LD50 in the experiment on housefly adults (setting [3]) is on record as 0.066 γ/Fly.
Turning to `C#CCCOC(=O)C(OC)(c1ccccc1)c1ccccc1` [Present compound (16)], the “Ratio of enhancing the killing effect” value with housefly adults (setting [4]) is on record as no less than 20; in the experiment on housefly adults (setting [6]), 7.2; in the experiment on housefly adults (setting [8]), 5.5; with housefly adults (setting [2]) it was 9.5. The LD50 in the experiment on housefly adults (setting [5]) is recorded as 0.25 γ/Fly; with housefly adults (setting [7]) it was 0.083 γ/Fly; with housefly adults (setting [9]), 0.064 γ/Fly; in the experiment with housefly adults (setting [3]), 0.055 γ/Fly.
Take `CCCCC(CC)CN1C(=O)C2C3C=CC(C3)C2C1=O` (stereo not shown) [MGK-264, N-(2-ethylhexyl)bicyclo[2,2,1]-hept-5-ene-anhydro-phthalic acid-2,3-dicarboxyimide]: the “synergistic effect on allethrin compared with natural pyrethrin” value in experiment [1] was “more excellent synergistic effect on allethrin than that on natural pyrethrin”.
Regarding `C#CCOC(=O)C(CCCCCC)(OC)c1ccccc1` (stereo not drawn) [Present compound (8), Propargyl α-(n-hexyl)-α-methoxyphenylacetate], in the experiment on housefly adults (setting [2]), the “Ratio of enhancing the killing effect” value was 4.5. Moreover, the LD50 in the experiment with housefly adults (setting [3]) is 0.128 γ/Fly.
For `C=CCOC(=O)C(Cc1ccccc1)(OC)c1ccccc1` (stereo not drawn) [Present compound (13), Allyl α-benzyl-α-methoxyphenylacetate] the same measures were 10.4 and 0.050 γ/Fly.
For `C#CCCOC(=O)C(OCCC#C)(c1ccccc1)c1ccccc1` [Present compound (18)] the same measures were 11.1 and 0.047 γ/Fly.
For `C#CCCCCOCC(CCC)(OC)c1ccccc1` (stereo not shown) [Present compound (27)] the same measures were 7.0 and 0.081 γ/Fly.
Regarding `CC(C)=CC1C(C(=O)OCN2C(=O)C3=C(CCCC3)C2=O)C1(C)C` (stereo not shown) [Tetramethrin, N-chrysanthemoxymethyl-3,4,5,6-tetrahydrophthalimide, reference compound], the LD50 with housefly adults (setting [11]) was 0.530 γ/Fly and 0.520 γ/Fly and 0.570 γ/Fly. For the same molecule, the “Ratio of enhancing the killing effect” value in the experiment on housefly adults (setting [12]) turned out to be 1.0. The mortality at 0.05 % in the experiment with house fly adults was found to be 52%.
As for `CC(C)=CC1C(C(=O)OCc2coc(Cc3ccccc3)c2)C1(C)C` (stereo not shown) [Chrysron, 5-benzyl-3-furylmethyl chrysanthemate, reference compound], the LD50 in the experiment with housefly adults (in vivo) is 0.026 γ/Fly and 0.024 γ/Fly and 0.027 γ/Fly. Further, the “Ratio of enhancing the killing effect” value in the experiment with housefly adults (setting [12]) is 1.0.
`C#CCOC(=O)C(Cc1ccccc1)(OC)c1ccccc1` (stereo not drawn) [Present compound (11), Propargyl α-benzyl-α-methoxyphenylacetate]: the “Ratio of enhancing the killing effect” value in the experiment with housefly adults (setting [4]) is given as no less than 24; in the experiment on housefly adults (setting [6]) it was 10.0; in the experiment with housefly adults (setting [8]), 6.5; with housefly adults (setting [2]), 11.3. The LD50 is 0.21 γ/Fly with housefly adults (setting [5]), 0.060 γ/Fly in the experiment on housefly adults (setting [7]), 0.054 γ/Fly in the experiment with housefly adults (setting [9]) and 0.046 γ/Fly in the experiment with housefly adults (setting [3]).
Turning to `C#CCOC(=O)C(CC=C)(OCC)c1ccccc1` (stereo not drawn) [Present compound (5), Propargyl α-allyl-α-ethoxyphenylacetate], the “Ratio of enhancing the killing effect” value in the experiment with housefly adults (setting [4]) is given as no less than 21; with housefly adults (setting [6]), 9.8; with housefly adults (setting [8]) it was 5.6; in the experiment on housefly adults (setting [2]), 12.5. Also, the LD50 was 0.238 γ/Fly in the experiment with housefly adults (setting [5]), 0.057 γ/Fly in the experiment on housefly adults (setting [7]), 0.071 γ/Fly in the experiment with housefly adults (setting [9]) and 0.042 γ/Fly in the experiment on housefly adults (setting [3]).
For the molecule `C#CCOC(=O)C(OC)(c1ccccc1)C(C)C` (stereo not drawn) [Present compound (2), Propargyl α-(iso-propyl)-α-methoxyphenylacetate], the LD50 in the experiment on housefly adults (setting [10]) is ≥ 2 γ/Fly; in the experiment with housefly adults (setting [3]), 0.061 γ/Fly. For the same molecule, the “Ratio of enhancing the killing effect” value in the experiment on housefly adults (setting [2]) is listed as 8.7.
For `C#CCOCC(CCC)(OC)c1ccccc1` (stereo not drawn) [Present compound (19), Propargyl α-(n-propyl)-α-methoxyphenethyl ether], in the experiment with housefly adults (setting [2]), the “Ratio of enhancing the killing effect” value came out at 8.5. The LD50 in the experiment with housefly adults (setting [3]) is recorded as 0.067 γ/Fly.
Turning to `CNC(=O)Oc1ccc(C)c(C)c1` [3,4-Dimethylphenyl-N-methylcarbamate, 3,4-dimethylphenyl-N-methylcarbamate, reference compound], the LD50 in the experiment on housefly adults (setting [11]) is ≥ 5 γ/Fly. Also, the “Ratio of enhancing the killing effect” value in the experiment with housefly adults (setting [12]) turned out to be 1.0.
Turning to `C#CCOCC(CC=C)(OC)c1ccccc1` (stereo not shown) [Present compound (20)], the “Ratio of enhancing the killing effect” value with housefly adults (setting [4]) is no less than 19; with housefly adults (setting [6]), 9.8; in the experiment on housefly adults (setting [8]), 7.0; in the experiment on housefly adults (setting [2]), 10.8. In addition, the LD50 was 0.252 γ/Fly in the experiment on housefly adults (setting [5]), 0.062 γ/Fly in the experiment on housefly adults (setting [7]), 0.056 γ/Fly with housefly adults (setting [9]) and 0.053 γ/Fly with housefly adults (setting [3]).
`C#CCOC(=O)C(CC=C)(OC)c1ccccc1` (stereo not drawn) [Present compound (3), Propargyl α-allyl-α-methoxyphenylacetate]: the “Ratio of enhancing the killing effect” value in the experiment with housefly adults (setting [4]) is listed as no less than 18; in the experiment on housefly adults (setting [6]) it was 7.4; in the experiment with housefly adults (setting [8]) it was 5.1; with housefly adults (setting [2]), 8.3. The LD50 in the experiment on housefly adults (setting [5]) is 0.273 γ/Fly; in the experiment with housefly adults (setting [7]), 0.076 γ/Fly; with housefly adults (setting [9]) it was 0.079 γ/Fly; in the experiment with housefly adults (setting [3]) it was 0.064 γ/Fly.
Turning to `C#CCOCC(CC(C)C)(OCC=C)c1ccccc1` (stereo not drawn) [Present compound (22), Propargyl α-(iso-butyl)-α-allyloxyphenethyl ether], the “Ratio of enhancing the killing effect” value with housefly adults (setting [2]) was found to be 10.2. Further, the LD50 in the experiment with housefly adults (setting [3]) was 0.056 γ/Fly.
For `C#CCC(OC)(C(=O)OCC=C)c1ccccc1` (stereo not drawn) [Present compound (15), Allyl α-propargyl-α-methoxyphenylacetate] the same measures were 8.7 and 0.060 γ/Fly.
